Results taken from ChEMBL document CHEMBL3301464, “MMV Malaria Box anti-babesial screening”.

Assays:
[1] = (§1) MMV: Anti-babesial activity assay. Parasite pRBCs at 1% parasitemia were cultivated in 100 ul with 96-well plates at 2.5% and 5% hematocrits. The parasites were cultivated in triplicate for 4 days without replacement of the medium for each concentration of the compound.; type: functional, Babesia bovis
[2] = as §1; type: functional, Babesia bigemina
[3] = as §1; type: functional, Babesia equi
[4] = as §1; type: functional, Babesia caballi

| Compound | IC50 [1] [µM] | IC50 [2] [µM] | IC50 [3] [µM] | IC50 [4] [µM] |
| --- | --- | --- | --- | --- |
| O=C(Nc1ccc(CN2CCOCC2)cc1)c1ccc(-c2cc(Cl)ccc2Cl)o1 | 25 | 10 | 10 | 0.069 |
| Cc1cc(Nc2cccc(F)c2)nc(NCc2ccccc2)n1 | 10 | 0.093 | 5.06 | 0.1 |
| O=C(Nc1ccc(-c2nc3cc4ccccc4cc3[nH]2)cc1)c1cccc(Br)c1 | 7 | 4.91 | 10 | 9.03 |
| c1ccc(/C2=N/c3ccccc3/N=C(/c3ccccc3)c3ccccc32)cc1 | 17.7 | 10 | 15.2 | 4.91 |
| CCOc1ccc(CN2CCN(CC(O)COc3ccc(OCC(O)CN4CCN(Cc5ccc(OCC)cc5)CC4)cc3)CC2)cc1 (stereo not given) | 0.05 | 0.13 | 0.45 | 0.37 |
| CC(C)(C)c1ccc(O)c(CNC2CCCCC2)c1 | 18.2 | 17 | 7 | 10 |
| COc1cc(-c2nc(-c3ccc(Sc4ccccc4)cc3)c(-c3ccccc3)[nH]2)cc(OC)c1O | 7.54 | 16.5 | 12 | 3.45 |
| CCCCNCC(O)(c1ccc(Cl)cc1)c1ccc(Cl)cc1 | 15.5 | 0.078 | 1 | 5.35 |
| CC(C)(C)CC(C)(C)NCC(O)COc1ccc(Cl)cc1Cl (stereo not given) | 0.083 | 0.32 | 0.53 | 0.071 |
| O=C(NCC1Cc2cccc(-c3ccncc3)c2O1)c1csc2c1CCCC2 (stereo not given) | 7.18 | 1 | 3.7 | 15.3 |
| CCOc1cc(CNC(C)C(O)c2ccccc2)cc(Cl)c1OCC (stereo not given) | 0.081 | 0.91 | 5.64 | 7.96 |
| Cc1ccccc1OCCSc1nc2ccc(NC(=O)c3ccccc3)cc2s1 | 0.9 | 0.26 | 1 | 16.9 |
| CN1c2ccccc2N(C)C1c1ccc2c(c1)OCO2 | 4.93 | 0.1 | 10.1 | 0.36 |
| Oc1c(C(Nc2ccccn2)c2cccc(Oc3ccccc3)c2)ccc2cccnc12 (stereo not given) | 6.72 | 3.34 | 12.6 | 10 |
| Oc1ccc(-c2nc(-c3ccc4oc5ccc(-c6[nH]c(-c7ccc(O)cc7)nc6-c6ccccc6)cc5c4c3)c(-c3ccccc3)[nH]2)cc1 | 0.059 | 1.39 | 0.1 | 10 |
| CC1(c2ccccc2)Nc2ccccc2-c2nc3ccccc3n21 (stereo not given) | 13.8 | 10 | 1 | 0.08 |
| CCOc1ccccc1NC(=O)CN1CCN(C(=O)c2ccco2)CC1 | 25 | 17.5 | 10.3 | 3.81 |
| COc1cc2cc(C(=O)Nc3ccccc3)c(N)nc2cc1OC | 0.86 | 21.1 | 3.04 | 6.22 |
| CCCN(CCC)CCCNC(=O)c1cc2c(-c3ccc(OC)c(OC)c3)nn(C)c2s1 | 11 | 3.32 | 19.4 | 5.5 |
| CCN(CC)c1cc(C)c2cc(NC(=O)c3cccc(OC)c3)ccc2n1 | 10 | 8.99 | 0.46 | 9.33 |
| Cc1cccc(-n2ncc3c(O)nc(-n4nc(C)cc4NC(=O)c4cc5ccccc5o4)nc32)c1 | 4.48 | 0.41 | 0.47 | 0.073 |
| CCN(CC)CCCNc1nc(-c2ccc(Cl)cc2)nc2ccccc12 | 0.73 | 2.16 | 0.25 | 5.93 |
| COc1ccc(C2c3ccc4ccccc4c3Oc3ncn(CCCn4ccnc4)c(=N)c32)cc1OC (stereo not given) | 6.3 | 0.1 | 5.68 | 0.41 |
| O=C(CCc1ccco1)NC1CCN(CC2(c3ccc(Cl)cc3)CCC2)CC1 | 5.06 | 1.87 | 3.39 | > 25 |
| O=C(Nc1ccc(N2CCN(Cc3ccccc3)CC2)cc1)c1cccs1 | 1.87 | 8.47 | 3.32 | 0.08 |
| c1ccc(Cn2c(N=Nc3c(Nc4ccccc4)ccc4ccccc34)nc3ccccc32)cc1 | 2.93 | 3.3 | 0.76 | 2.84 |
| CN1CCN(c2nc(Nc3ccc(O)cc3)nc3ccccc23)CC1 | 16.8 | 10.2 | 15.6 | 9 |
| Cc1cc(NC(=O)c2cccc(C(F)(F)F)c2)n(-c2nc(-c3ccc4c(c3)OCO4)cs2)n1 | 18 | 8.83 | 12.3 | 0.08 |
| COc1cc(SC)ccc1C(=O)N1CCCC(C)C1 (stereo not given) | 19.4 | > 25 | 5.79 | 12.3 |
| COc1cccc(O)c1CN1CCC2(CCCN(Cc3ccc(F)cc3)C2)C1 (stereo not given) | 2.45 | 10 | 4.6 | 3.09 |
